Key:
[1] = Double cuvette-ISES (in situ enzymatic screening) of Co(III)-salen mediated HKR of (±)-propylene oxide; details: for % ee of the 1,2-propanediol product, as predicted by double-cuvette ISES (upper number): bilayer of pH 8.6 buffer over 7.2 M epoxide in CHCl3, 0.25 mol % catalyst, 15-35 min, + = (S), − = (R)
Experimental: Aqueous reporting layers. containing TBADH/NADP+ (cuvette 1) and HLADH/NAD+ (cuvette 2), respectively, are then added. The increase in absorbance at 340 nm can be followed for several such sets in parallel by UV-vis spectrophotometry. The kinetic data are then used to make the double-cuvette ISES predictions.
A general procedure for double cuvette-ISES to estimate both enantioselectivities and relative rates for an array of catalysts being screened in parallel is presented below. The hydrolytic kinetic resolution (HKR) of (±) propylene oxide was chosen as model reaction.
Typically, quartz cuvettes with one cm light paths and with nominal one mL volumes were used. For each catalyst, a two cuvette screen was performed, with cuvette A containing HLADH, as (S)-propanediol-selective reporting enzyme, and cuvette B containing TBADH, as a (R)-propanediol-selective reporting enzyme. For each cuvette, the final volume was 800 μL (300 μL of organic layer; 500 μL of aqueous layer).
Both cuvettes A and B had the following composition: 150 μL (2.15 mmol) of (±)-propylene oxide (7.2 M in organic layer), 150 μL of CHCl3 and 0.25 mol % Co(III)-salen catalyst. The total organic layer volume was maintained as 300 μL in all catalyst screens.
(i) Cuvette A: 0.35 U HLADH (17.6 μL from a stock solution (0.02U/μL)), 7.2 mM β-NAD+(16.5 μL from a 220 mM stock) and 465.8 μL of 50 mM sodium pyrophosphate buffer, pH 8.8. The final pH was 8.6.
(ii) Cuvette B: 0.35 U TBADH (15.8 μL from a stock solution (0.022U/μL)) of, 2.2 mM β-NADP+ (5 μL from a 220 mM stock) and 479.5 μL of 50 mM sodium pyrophosphate buffer, pH 8.8. The final pH was 8.6. The total volume of the aqueous layer was maintained as 500 μL in both cuvettes in all ISES experiments.
C. Step by Step Protocol: A catalyst stock solution (22 μmol of catalyst in 620 μL CHCl3) was made up in a 1.5 ml microcentrifuge tube, and stored on ice, along with a stock of (±)-propylene oxide, in a separate tube. The organic layers were prepared by briefly vortexing 150 μL (5.4 μmol, 0.25 mol %) of the catalyst stock in CHCl3 with 150 μL (2.15 mmol) of (±)-propylene oxide in iced microcentrifuge tubes. These were loaded into 1 mL quartz cuvettes using precooled (refrigerator), disposable 1 mL syringes. The aqueous layers were then layered on top of the organic layers, by syringe, down the walls of the cuvette.

[2] = HKR of (±)-propylene oxide under standard neat 'Jacobsen conditions' (NMR conversion, chiral HPLC ee); details: for NMR conv. (time) / % ee (HPLC): loading 0.25 mol %; for % ee of the 1,2-propanediol product, as observed by chiral HPLC (lower number): neat propylene oxide, 0.55 equiv. H2O, 0.25 mol % catalyst, 3 h reaction time
Experimental: Salens in the fully synthetic, 42 member focused library that led to catalysts with appreciable activity, as indicated by double cuvette-ISES, were also evaluated ‘outside of the cuvette,’ under conditions more typically employed in HKR reactions. Specifically, these Co(III)-salen catalysts were evaluated in the HKR of (±)-propylene oxide, under neat conditions, similar to those described by Jacobsen and coworkers. Reactions were arbitrarily stopped after 3 hours, to obtain the enantiopurity of the 1,2-propanediol product at relatively early reaction times, for comparison with ISES predictions.
A typical procedure follows: To the Co(III)-salen catalyst derived from 7e (5.4 mg, 5.4 μmol, 0.25 mol %) and (±)-propylene oxide (125 mg, 2.15 mmol) at 0° C., was added water (21 μL, 1.18 mmol, 0.55 equiv.). The reaction mixture was securely capped, and allowed to warm to room temperature and stirred, most commonly for a total of 3 hours. Percent conversion at 3 hours was evaluated by 1H NMR of an aliquot (cooled to 0° C. for the transfer), in CDCl3. In most of these cases, the conversion was low enough after 3 hours, that the unreacted epoxide (bp 32° C.) was of relatively low ee, and was therefore removed by evaporation under aspirator vacuum. When the conversion was less than 5% by NMR after 3 hours, reactions were continued for longer times.
Upon termination of the reaction, the diol product was isolated by Kugelrohr distillation (˜120° C.-oven temp; 0.1 torr). To determine ee, the isolated diol was derivatized using p-bromobenzoyl imidazole (2.2 equiv.) in THF in the presence of NaH (4 equiv.) at room temperature for 5 min. The bis(p-bromobenzoate) esters obtained following sequential washes with 1 N HCl and saturated sodium bicarbonate, were of sufficient purity to be used directly for chiral HPLC analysis (Chiralcel OD, 99% […]). [drawing 23] [drawing 24] [drawing 25] [drawing 26] [drawing 27]

[3] = [total 1,2-propanediol] in aqueous ISES layer by 1H NMR; details: for [diol] (mM) @ 15 min: aqueous ISES layer, 1H NMR, t = 15 min; for Norm.: normalized to the catalyst derived from salen 3b (rate 1.0)
Experimental: The concentration of 1,2-propanediol in the aqueous layer was estimated under typical ISES conditions using 1H NMR spectroscopy. The bilayer was prepared as usual for double cuvette-ISES (Section V), but for the substitution of D2O for H2O in the buffer, and the elimination of the dehydrogenase enzymes. After 15 min, the aqueous layer (300 μL of 500 μL total) was withdrawn and mixed with a fresh solution of imidazole of known concentration (also 300 μL in D2O), as an internal concentration standard. Accumulation of the 1H NMR spectrum, followed by integration and quantitation, provided an experimental measure of [total diol] in the aqueous reporting layer at t=15 minutes for the catalyst under investigation. The observed diol concentrations for ten catalysts examined in this way are collected in Table S6, below. These have been normalized to the value for the catalyst derived from salen 3b (arbitrarily assigned a rate of 1.0).

[4] = reaction stopped at the time given (mostly 3 h), + = (S), − = (R)

SMILES | % ee of the 1,2-propanediol product, as predicted by double-cuvette ISES (upper number) [1] | NMR conv. (time) ([2]; 3 h) | % ee (HPLC) [2, 4] | % ee of the 1,2-propanediol product, as observed by chiral HPLC (lower number) ([2]; + = (S), − = (R)) | [diol] (mM) @ 15 min [3] [mM] | Norm. [3] | further results
Oc1c(C=NC[C@H](Cc2ccc3ccccc3c2)N=Cc2ccc3ccccc3c2O)ccc2ccccc12 [Salen 5d, N,N′-Bis(1′-hydroxy-2′-naphthylidene)-(1S)-(β-naphthylmethyl)-1,2-ethylenediamine] | +9 % ee | 10 (3 h) % | +11 (S) % ee | +11 % ee | 54 | 0.56 | –
CC(C)(C)c1cccc(C=NC[C@H](Cc2cccc3ccccc23)N=Cc2cccc(C(C)(C)C)c2O)c1O [Salen 4b, N,N′-Bis(3′-tert-butylsalicylidene)-(1S)-(α-naphthylmethyl)-1,2-ethylenediamine] | +91 % ee | 50 (3 h) % | +59 (S) % ee | +59 % ee | 98 | 1.02 | –
Oc1c(I)cc(I)cc1C=NC[C@H](Cc1ccc2ccccc2c1)N=Cc1cc(I)cc(I)c1O [Salen 5e, N,N′-Bis(3′,5′-diiodosalicylidene)-(1S)-(β-naphthylmethyl)-1,2-ethylenediamine] | +35 % ee | 3 (3 h) % | −5 (R) % ee | −5 % ee | – | – | –
CC(C)(C)c1cccc(C=NC[C@@H](N=Cc2cccc(C(C)(C)C)c2O)c2ccccc2)c1O [Salen 2b, N,N′-Bis(3′-tert-butylsalicylidene)-(1S)-phenyl-1,2-ethylenediamine] | −73 % ee | 26 (3 h) % | −75 (R) % ee | −75 % ee | 22 | 0.23 | –
CO[C@H]1[C@@H]2OC(C)(C)O[C@@H]2COC1(CN=Cc1cc(C(C)(C)C)cc(C(C)(C)C)c1O)N=Cc1cc(C(C)(C)C)cc(C(C)(C)C)c1O (some centres unmarked) [Salen 6a, N,N′-Bis(3′,5′-di-tert-butylsalicylidene)-3-O-methyl-4,5-O-isopropylidene-1,2-dideoxy-Dfructopyranosyl-1,2-diamine] | – | – | – | – | – | – | % ee of the 1,2-propanediol product, as predicted by double-cuvette ISES (upper number) ([1]; listed as 6a*): +77 % ee; NMR conv. (time) ([2]; 3 h, listed as 6a*): 12 (3 h) %; % ee (HPLC) ([2]; reaction stopped at the time printed in the row (mostly 3 h), + = (S), − = (R), listed as 6a*): +69 (S) % ee; % ee of the 1,2-propanediol product, as observed by chiral HPLC (lower number) ([2]; + = (S), − = (R), listed as 6a*): +69 % ee
Oc1c(I)cc(I)cc1C=NC[C@@H](N=Cc1cc(I)cc(I)c1O)c1ccccc1 [Salen 2e, N,N′-Bis(3′,5′-diiodosalicylidene)-(1S)-phenyl-1,2-ethylenediamine] | +4 % ee | 26 (3 h) % | −41 (R) % ee | −41 % ee | – | – | –
CC(C)(C)c1cc(C=NC[C@H](Cc2ccc3ccccc3c2)N=Cc2cc(C(C)(C)C)cc(C(C)(C)C)c2O)c(O)c(C(C)(C)C)c1 [Salen 5a, N,N′-Bis(3′,5′-di-tert-butylsalicylidene)-(1S)-(β-naphthylmethyl)-1,2-ethylenediamine] | +87 % ee | 36 (3 h) % | +66 (S) % ee | +66 % ee | 52.5 | 0.55 | –
Oc1cc(OCc2ccccc2)ccc1C=NC[C@H](Cc1cccc2ccccc12)N=Cc1ccc(OCc2ccccc2)cc1O [Salen 4f, N,N′-Bis(4′-benzyloxysalicylidene)-(1S)-(α-naphthylmethyl)-1,2-ethylenediamine] | +57 % ee | – | +51 (S) % ee | +51 % ee | – | – | NMR conv. (time) ([2]; 21 h): 24 (21 h) %
CO[C@H]1[C@@H]2OC(C)(C)O[C@@H]2COC1(CN=Cc1c(O)ccc2ccccc12)N=Cc1c(O)ccc2ccccc12 (some centres unmarked) [Salen 7c, N,N′-Bis(2′-hydroxy-1′-naphthylidene)-3-O-methyl-4,5-O-isopropylidene-1,2-dideoxy-Dfructopyranosyl-1,2-diamine] | – | – | – | – | – | – | ISES signal ([1]; over 35 min): § (These catalysts gave ISES signals <20 mAbs min−1 over 35 min.); NMR conv. (time) ([2]; time not given): none obs
CC(C)(C)c1cc(C=NC[C@H](Cc2ccccc2)N=Cc2cc(C(C)(C)C)cc(C(C)(C)C)c2O)c(O)c(C(C)(C)C)c1 [Salen 3a, N,N′-Bis(3′,5′-di-tert-butylsalicylidene)-(1S)-benzyl-1,2-ethylenediamine] | +48 % ee | 46 (3 h) % | +55 (S) % ee | +55 % ee | – | – | –
Oc1c(I)cc(I)cc1C=NC[C@H](Cc1cccc2ccccc12)N=Cc1cc(I)cc(I)c1O [Salen 4e, N,N′-Bis(3′,5′-diiodosalicylidene)-(1S)-(α-naphthylmethyl)-1,2-ethylenediamine] | +43 % ee | – | +14 (S) % ee | +14 % ee | – | – | ISES rate in the HLADH cuvette ([1]; over 35 min): 18.1 mAbs min−1; NMR conv. (time) ([2]; 24 h): 6 (24 h) %
CC1(C)CCN2CCC(C)(C)c3c(O)c(C=NC[C@@H](N=Cc4cc5c6c(c4O)C(C)(C)CCN6CCC5(C)C)c4ccccc4)cc1c32 [Salen 2g, N,N′-Bis(8′-hydroxy-1′,1′,7′,7′-tetramethyljulolidinyl-9′-methylidene)-(1S)-phenyl-1,2-ethylenediamine] | −41 % ee | – | – | −71 % ee | – | – | ISES rate in the HLADH cuvette ([1]; over 35 min): 14.9 mAbs min−1; % ee (HPLC) ([2]; @3 h): −71@3 h, % ee; % ee (HPLC) ([2]; @20 h): −65@20 h (R) % ee
